Measurements published in the supplement of paper PMC10307832.

Each cell line was assayed with CC1(C)CCC(CN2CCN(c3ccc(C(=O)NS(=O)(=O)c4ccc(NCC5CCOCC5)c([N+](=O)[O-])c4)c(Oc4cnc5[nH]ccc5c4)c3)CC2)=C(c2ccc(Cl)cc2)C1 [Venetoclax] + CS(=O)(=O)N1CCN(Cc2cc3nc(-c4cccc5[nH]ncc45)nc(N4CCOCC4)c3s2)CC1 [Pictilisib] (partner 1 µM) (assay: relative viability (nuclei count vs DMSO), 5 days (fraction); higher = more cells survive). Conditions: first compound 0.01 µM.
In short: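 After 5 days of treatment, lung cancer cells in 1536-well plates were fixed and stained in a single step (final 0.05% Triton X-100, 1% formaldehyde, 1 ug/ml Hoechst) and their nuclei counted on 4× images. Treatment had been applied by pin tool the day after seeding as one drug alone or as a fixed anchor-drug dose with five library-drug doses (not always all listed) in √10 steps. Relative viability is the nuclei count of treated wells divided by that of vehicle wells, and values are medians of duplicate plates.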

First: IA-LM
Second: HCC-78
The relative viability of the first is higher: 0.354 for the first, 0.179 for the second.

First: A549
Second: NCI-H1299
The relative viability of the first is lower: 0.48 for the first, 0.869 for the second.

Compared with BEN, HCC-15 is lower in relative viability: 0.738 for the first, 0.652 for the second.

Going from HCC-827 to NCI-H460, the relative viability falls from 1.01 to 0.394.

Compared with LU99A, NCI-H2085 is higher in relative viability: 0.321 for the first, 0.458 for the second.

Going from A-427 to NCI-H520, the relative viability falls from 0.651 to 0.304.

First: NCI-H838
Second: NCI-H1792
The relative viability of the first is higher: 0.661 for the first, 0.228 for the second.

Going from NCI-H596 to NCI-H3122, the relative viability rises from 0.402 to 0.797.

Going from NCI-H1395 to 201T, the relative viability falls from 0.643 to 0.635.

Same assay, conditions: first compound 0.03162 µM

Compared with EMC-BAC-2, NCI-H2126 is lower in relative viability: 0.56 for the first, 0.538 for the second.

Compared with Calu-6, HCC-44 is lower in relative viability: 0.89 for the first, 0.595 for the second.

Compared with NCI-H1734, NCI-H650 is higher in relative viability: 0.508 for the first, 0.855 for the second.

Going from LK-2 to NCI-H2228, the relative viability falls from 0.636 to 0.416.

Going from SK-MES-1 to HARA, the relative viability falls from 0.398 to 0.386.

First: COR-L23
Second: COR-L 105
The relative viability of the first is higher: 0.82 for the first, 0.526 for the second.

First: LC-2-ad
Second: LXF-289
The relative viability of the first is lower: 0.401 for the first, 0.739 for the second.

Going from NCI-H2170 to NCI-H322M, the relative viability rises from 0.3 to 0.511.

First: IA-LM
Second: HCC-78
The relative viability of the first is higher: 0.322 for the first, 0.244 for the second.

Compared with A549, NCI-H1299 is higher in relative viability: 0.542 for the first, 0.874 for the second.

Going from BEN to HCC-15, the relative viability rises from 0.637 to 0.804.

Compared with HCC-827, NCI-H460 is lower in relative viability: 1.31 for the first, 0.43 for the second.

Compared with LU99A, NCI-H2085 is higher in relative viability: 0.357 for the first, 0.48 for the second.

First: A-427
Second: NCI-H520
The relative viability of the first is higher: 0.809 for the first, 0.351 for the second.

First: NCI-H838
Second: NCI-H1792
The relative viability of the first is higher: 0.48 for the first, 0.306 for the second.

Compared with NCI-H596, NCI-H3122 is higher in relative viability: 0.408 for the first, 0.619 for the second.

First: NCI-H1395
Second: 201T
The relative viability of the first is higher: 0.74 for the first, 0.653 for the second.

Same assay, conditions: first compound 0.1 µM

Going from EMC-BAC-2 to NCI-H2126, the relative viability rises from 0.452 to 0.487.

Compared with Calu-6, HCC-44 is lower in relative viability: 0.879 for the first, 0.596 for the second.

Compared with NCI-H1734, LK-2 is higher in relative viability: 0.398 for the first, 0.512 for the second.

First: NCI-H2228
Second: SK-MES-1
The relative viability of the first is higher: 0.395 for the first, 0.315 for the second.

Compared with HARA, COR-L23 is higher in relative viability: 0.396 for the first, 0.732 for the second.

Compared with COR-L 105, LC-2-ad is higher in relative viability: 0.367 for the first, 0.387 for the second.

First: LXF-289
Second: NCI-H2170
The relative viability of the first is higher: 0.795 for the first, 0.296 for the second.

First: NCI-H322M
Second: IA-LM
The relative viability of the first is higher: 0.488 for the first, 0.275 for the second.

First: HCC-78
Second: A549
The relative viability of the first is lower: 0.187 for the first, 0.564 for the second.

First: NCI-H1299
Second: BEN
The relative viability of the first is higher: 0.637 for the first, 0.518 for the second.

Going from HCC-15 to HCC-827, the relative viability rises from 0.629 to 0.912.

Going from NCI-H460 to LU99A, the relative viability rises from 0.316 to 0.362.

Compared with NCI-H2085, A-427 is higher in relative viability: 0.417 for the first, 0.588 for the second.

First: NCI-H520
Second: NCI-H838
The relative viability of the first is lower: 0.283 for the first, 0.474 for the second.

First: NCI-H1792
Second: NCI-H596
The relative viability of the first is lower: 0.161 for the first, 0.354 for the second.

Compared with NCI-H3122, NCI-H1395 is higher in relative viability: 0.576 for the first, 0.611 for the second.

Work on 201T yielded a relative viability of 0.659.

Same assay, conditions: first compound 0.3162 µM

Going from EMC-BAC-2 to NCI-H2126, the relative viability falls from 0.544 to 0.528.

Going from Calu-6 to HCC-44, the relative viability falls from 0.857 to 0.578.

First: NCI-H1734
Second: NCI-H650
The relative viability of the first is lower: 0.513 for the first, 0.842 for the second.

First: LK-2
Second: NCI-H2228
The relative viability of the first is higher: 0.54 for the first, 0.358 for the second.

First: SK-MES-1
Second: HARA
The relative viability of the first is lower: 0.334 for the first, 0.451 for the second.

First: COR-L23
Second: COR-L 105
The relative viability of the first is higher: 0.825 for the first, 0.406 for the second.

First: LC-2-ad
Second: LXF-289
The relative viability of the first is lower: 0.516 for the first, 0.771 for the second.

Compared with NCI-H2170, NCI-H322M is higher in relative viability: 0.306 for the first, 0.532 for the second.

First: IA-LM
Second: HCC-78
The relative viability of the first is higher: 0.317 for the first, 0.206 for the second.

Compared with A549, NCI-H1299 is higher in relative viability: 0.493 for the first, 0.769 for the second.

First: BEN
Second: HCC-15
The relative viability of the first is lower: 0.557 for the first, 0.706 for the second.

Compared with HCC-827, NCI-H460 is lower in relative viability: 0.929 for the first, 0.385 for the second.

First: LU99A
Second: NCI-H2085
The relative viability of the first is lower: 0.297 for the first, 0.507 for the second.

First: A-427
Second: NCI-H520
The relative viability of the first is higher: 0.834 for the first, 0.257 for the second.

First: NCI-H838
Second: NCI-H1792
The relative viability of the first is higher: 0.465 for the first, 0.262 for the second.

Going from NCI-H596 to NCI-H3122, the relative viability rises from 0.391 to 0.568.

First: NCI-H1395
Second: 201T
The relative viability of the first is lower: 0.602 for the first, 0.73 for the second.

Same assay, conditions: first compound 1 µM

Going from EMC-BAC-2 to NCI-H2126, the relative viability falls from 0.535 to 0.488.

Going from Calu-6 to HCC-44, the relative viability falls from 0.882 to 0.608.

Compared with NCI-H1734, NCI-H650 is higher in relative viability: 0.488 for the first, 0.797 for the second.

First: LK-2
Second: NCI-H2228
The relative viability of the first is higher: 0.613 for the first, 0.494 for the second.

Going from SK-MES-1 to HARA, the relative viability falls from 0.349 to 0.324.

First: COR-L23
Second: COR-L 105
The relative viability of the first is higher: 0.676 for the first, 0.468 for the second.

First: LC-2-ad
Second: LXF-289
The relative viability of the first is lower: 0.555 for the first, 0.762 for the second.

Compared with NCI-H2170, NCI-H322M is higher in relative viability: 0.302 for the first, 0.487 for the second.

Going from IA-LM to HCC-78, the relative viability falls from 0.337 to 0.238.

Going from A549 to NCI-H1299, the relative viability rises from 0.482 to 0.67.

Going from BEN to HCC-15, the relative viability rises from 0.546 to 0.701.

First: HCC-827
Second: NCI-H460
The relative viability of the first is higher: 1.02 for the first, 0.367 for the second.

First: LU99A
Second: NCI-H2085
The relative viability of the first is lower: 0.319 for the first, 0.502 for the second.

Compared with A-427, NCI-H520 is lower in relative viability: 0.705 for the first, 0.286 for the second.

Going from NCI-H838 to NCI-H1792, the relative viability falls from 0.534 to 0.278.

Going from NCI-H596 to NCI-H3122, the relative viability rises from 0.364 to 0.683.

First: NCI-H1395
Second: 201T
The relative viability of the first is lower: 0.633 for the first, 0.683 for the second.
